Assay results as given in publication PMC5917001, “Counter-ion effect on antistaphylococcal activity and cytotoxicity of selected antimicrobial peptides” (Amino Acids, 2018).
Where no end group is shown, it is not given here.

These substances were tested on S. aureus (29): reference (5) and clinical (24) strains. Conditions: mean over 29 S. aureus strains (Table 5).
Experimental: Microbiological assays were performed using reference and clinical strains of Staphylococcus aureus. Minimal inhibitory concentrations (MIC) were determined by broth microdilution method on 96-well polystyrene plates according to Clinical and Laboratory Standards Institute (CLSI) recommendations [Clinical and Laboratory Standards Institute (CLSI) [2012]]. […] All plates were incubated for 18 h at 37 °C. […] Reference strains of S. aureus: ATCC 6538, ATCC 6538/P, ATCC 9144, ATCC 12598, and ATCC 25923 were obtained from the Polish Collection of Microorganisms (PCM, Polish Academy of Sciences, Wrocław), whereas 24 clinical strains were isolated from the patients of the Clinic of Dermatology, Venereology and Allergology (Medical University of Gdańsk). Nine strains were characterized as methicillin-resistant (MRSA). Preliminary identification and detection was conducted on the ChromID MRSA/ChromID S. aureus biplate (bioMérieux) for the simultaneous detection of S. aureus and methicillin-resistant S. aureus (MRSA). All experiments were conducted at least in triplicate.
To asses an overall activity of peptides, the mean MIC values were calculated.
In the case of “GIGKFLKKAKKFGKAFVKILKK-NH2 [Pexiganan Cl^−]”, the “Mean value of MIC” value is reported as 7.4 µg/mL.
“GLFDVIKKVASVIGGL-NH2 [Citropin 1.1 AcO^−]” was tested, and the “Mean value of MIC” value was 10.0 µg/mL.

Same assay, conditions: mean over 29 S. aureus strains, as repeated in Table 6
“GLFDVIKKVASVIGGL-NH2 [Citropin 1.1 AcO^−]” was tested, and the “Mean MIC values” was 10.0 µg/mL.

What follows are substances tested on S. aureus 001S (MRSA). Conditions: clinical strain, broth microdilution, 0.5 × 10^5 CFU/mL, 18 h, 37 °C, at least triplicate.
Assay type: cell-based, Staphylococcus aureus
Experimental: (§1) Microbiological assays were performed using reference and clinical strains of Staphylococcus aureus. Minimal inhibitory concentrations (MIC) were determined by broth microdilution method on 96-well polystyrene plates according to Clinical and Laboratory Standards Institute (CLSI) recommendations [Clinical and Laboratory Standards Institute (CLSI) [2012]]. For this purpose, the initial inoculums of 0.5 × 10^5 CFU/mL of bacteria were exposed to a range of concentrations of the peptides (0.5–256 µg/mL). All plates were incubated for 18 h at 37 °C. MIC was taken as the lowest concentration of the compound at which the growth of bacteria was not observed. Reference strains of S. aureus: ATCC 6538, ATCC 6538/P, ATCC 9144, ATCC 12598, and ATCC 25923 were obtained from the Polish Collection of Microorganisms (PCM, Polish Academy of Sciences, Wrocław), whereas 24 clinical strains were isolated from the patients of the Clinic of Dermatology, Venereology and Allergology (Medical University of Gdańsk). Nine strains were characterized as methicillin-resistant (MRSA). Preliminary identification and detection was conducted on the ChromID MRSA/ChromID S. aureus biplate (bioMérieux) for the simultaneous detection of S. aureus and methicillin-resistant S. aureus (MRSA). All experiments were conducted at least in triplicate.
“GLFDVIKKVASVIGGL-NH2 [Citropin 1.1 AcO^−]” was tested, and the MIC was 16 µg/mL.

These substances were tested on S. aureus 004N (MRSA). Conditions: clinical strain, broth microdilution, 0.5 × 10^5 CFU/mL, 18 h, 37 °C, at least triplicate.
Assay type: cell-based, Staphylococcus aureus
Experimental: as §1
In the case of “GLFDVIKKVASVIGGL-NH2 [Citropin 1.1 AcO^−]”, the MIC is reported as 8 µg/mL.

What follows are substances tested on S. aureus 013S. Conditions: clinical strain, broth microdilution, 0.5 × 10^5 CFU/mL, 18 h, 37 °C, at least triplicate.
Assay type: cell-based, Staphylococcus aureus
Experimental: as §1
For “GLFDVIKKVASVIGGL-NH2 [Citropin 1.1 AcO^−]”, the MIC was 2 µg/mL.

The substances below were run on S. aureus 002N. Conditions: clinical strain, broth microdilution, 0.5 × 10^5 CFU/mL, 18 h, 37 °C, at least triplicate.
Assay type: cell-based, Staphylococcus aureus
Experimental: as §1
With “GLFDVIKKVASVIGGL-NH2 [Citropin 1.1 AcO^−]” the MIC was 16 µg/mL.

Each substance was assayed on S. aureus K46N. Conditions: clinical strain, broth microdilution, 0.5 × 10^5 CFU/mL, 18 h, 37 °C, at least triplicate.
Assay type: cell-based, Staphylococcus aureus
Experimental: as §1
With “GLFDVIKKVASVIGGL-NH2 [Citropin 1.1 AcO^−]” the MIC was 16 µg/mL.

These substances were tested on S. aureus 002S. Conditions: clinical strain, broth microdilution, 0.5 × 10^5 CFU/mL, 18 h, 37 °C, at least triplicate.
Assay type: cell-based, Staphylococcus aureus
Experimental: as §1
“GLFDVIKKVASVIGGL-NH2 [Citropin 1.1 AcO^−]” gave an MIC of 16 µg/mL.

Each substance was assayed on S. aureus 017N (MRSA). Conditions: clinical strain, broth microdilution, 0.5 × 10^5 CFU/mL, 18 h, 37 °C, at least triplicate.
Assay type: cell-based, Staphylococcus aureus
Experimental: as §1
“GLFDVIKKVASVIGGL-NH2 [Citropin 1.1 AcO^−]” was tested, and the MIC was 4 µg/mL.

The substances below were run on S. aureus 030N. Conditions: clinical strain, broth microdilution, 0.5 × 10^5 CFU/mL, 18 h, 37 °C, at least triplicate.
Assay type: cell-based, Staphylococcus aureus
Experimental: as §1
“GLFDVIKKVASVIGGL-NH2 [Citropin 1.1 AcO^−]” showed an MIC of 16 µg/mL.

Each substance was assayed on S. aureus 001N (MRSA). Conditions: clinical strain, broth microdilution, 0.5 × 10^5 CFU/mL, 18 h, 37 °C, at least triplicate.
Assay type: cell-based, Staphylococcus aureus
Experimental: as §1
“GLFDVIKKVASVIGGL-NH2 [Citropin 1.1 AcO^−]” was tested, and the MIC was 16 µg/mL.

Each substance was assayed on S. aureus ATCC 25923. Conditions: ATCC 25923, reference strain; broth microdilution, 0.5 × 10^5 CFU/mL, 18 h, 37 °C, at least triplicate.
Assay type: cell-based, Staphylococcus aureus
Experimental: as §1
Work on “GLFDVIKKVASVIGGL-NH2 [Citropin 1.1 AcO^−]” yielded an MIC of 16 µg/mL.

The substances below were run on S. aureus ATCC 12598. Conditions: ATCC 12598, reference strain; broth microdilution, 0.5 × 10^5 CFU/mL, 18 h, 37 °C, at least triplicate.
Assay type: cell-based, Staphylococcus aureus
Experimental: as §1
Substance “GLFDVIKKVASVIGGL-NH2 [Citropin 1.1 AcO^−]” has an MIC of 8 µg/mL.

What follows are substances tested on S. aureus K50S. Conditions: clinical strain, broth microdilution, 0.5 × 10^5 CFU/mL, 18 h, 37 °C, at least triplicate.
Assay type: cell-based, Staphylococcus aureus
Experimental: as §1
For “GLFDVIKKVASVIGGL-NH2 [Citropin 1.1 AcO^−]”, the MIC was 1 µg/mL.

These substances were tested on S. aureus 039N. Conditions: clinical strain, broth microdilution, 0.5 × 10^5 CFU/mL, 18 h, 37 °C, at least triplicate.
Assay type: cell-based, Staphylococcus aureus
Experimental: as §1
With “GLFDVIKKVASVIGGL-NH2 [Citropin 1.1 AcO^−]” the MIC was 8 µg/mL.

The substances below were run on S. aureus ATCC 9144. Conditions: ATCC 9144, reference strain; broth microdilution, 0.5 × 10^5 CFU/mL, 18 h, 37 °C, at least triplicate.
Assay type: cell-based, Staphylococcus aureus
Experimental: as §1
Substance “GLFDVIKKVASVIGGL-NH2 [Citropin 1.1 AcO^−]” has an MIC of 16 µg/mL.

These substances were tested on S. aureus 048S. Conditions: clinical strain, broth microdilution, 0.5 × 10^5 CFU/mL, 18 h, 37 °C, at least triplicate.
Assay type: cell-based, Staphylococcus aureus
Experimental: as §1
In the case of “GLFDVIKKVASVIGGL-NH2 [Citropin 1.1 AcO^−]”, the MIC is reported as 16 µg/mL.

The substances below were run on S. aureus 024N (MRSA). Conditions: clinical strain, broth microdilution, 0.5 × 10^5 CFU/mL, 18 h, 37 °C, at least triplicate.
Assay type: cell-based, Staphylococcus aureus
Experimental: as §1
Substance “GLFDVIKKVASVIGGL-NH2 [Citropin 1.1 AcO^−]” has an MIC of 2 µg/mL.

These substances were tested on S. aureus ATCC 6538/P. Conditions: reference strain, broth microdilution, 0.5 × 10^5 CFU/mL, 18 h, 37 °C, at least triplicate.
Assay type: cell-based, Staphylococcus aureus
Experimental: as §1
“GLFDVIKKVASVIGGL-NH2 [Citropin 1.1 AcO^−]” gave an MIC of 8 µg/mL.

What follows are substances tested on S. aureus 033N. Conditions: clinical strain, broth microdilution, 0.5 × 10^5 CFU/mL, 18 h, 37 °C, at least triplicate.
Assay type: cell-based, Staphylococcus aureus
Experimental: as §1
“GLFDVIKKVASVIGGL-NH2 [Citropin 1.1 AcO^−]” was tested, and the MIC was 8 µg/mL.

Each substance was assayed on S. aureus 060S. Conditions: clinical strain, broth microdilution, 0.5 × 10^5 CFU/mL, 18 h, 37 °C, at least triplicate.
Assay type: cell-based, Staphylococcus aureus
Experimental: as §1
With “GLFDVIKKVASVIGGL-NH2 [Citropin 1.1 AcO^−]” the MIC was 1 µg/mL.

These substances were tested on S. aureus 051S. Conditions: clinical strain, broth microdilution, 0.5 × 10^5 CFU/mL, 18 h, 37 °C, at least triplicate.
Assay type: cell-based, Staphylococcus aureus
Experimental: as §1
For “GLFDVIKKVASVIGGL-NH2 [Citropin 1.1 AcO^−]”, the MIC was 4 µg/mL.

What follows are substances tested on S. aureus 045N. Conditions: clinical strain, broth microdilution, 0.5 × 10^5 CFU/mL, 18 h, 37 °C, at least triplicate.
Assay type: cell-based, Staphylococcus aureus
Experimental: as §1
With “GLFDVIKKVASVIGGL-NH2 [Citropin 1.1 AcO^−]” the MIC was 16 µg/mL.

These substances were tested on S. aureus 005S. Conditions: clinical strain, broth microdilution, 0.5 × 10^5 CFU/mL, 18 h, 37 °C, at least triplicate.
Assay type: cell-based, Staphylococcus aureus
Experimental: as §1
With “GLFDVIKKVASVIGGL-NH2 [Citropin 1.1 AcO^−]” the MIC was 2 µg/mL.

What follows are substances tested on S. aureus 015N (MRSA). Conditions: clinical strain, broth microdilution, 0.5 × 10^5 CFU/mL, 18 h, 37 °C, at least triplicate.
Assay type: cell-based, Staphylococcus aureus
Experimental: as §1
In the case of “GLFDVIKKVASVIGGL-NH2 [Citropin 1.1 AcO^−]”, the MIC is reported as 8 µg/mL.

Each substance was assayed on S. aureus K19N. Conditions: clinical strain, broth microdilution, 0.5 × 10^5 CFU/mL, 18 h, 37 °C, at least triplicate.
Assay type: cell-based, Staphylococcus aureus
Experimental: as §1
Substance “GLFDVIKKVASVIGGL-NH2 [Citropin 1.1 AcO^−]” has an MIC of 16 µg/mL.

What follows are substances tested on S. aureus 043SC (MRSA). Conditions: clinical strain, broth microdilution, 0.5 × 10^5 CFU/mL, 18 h, 37 °C, at least triplicate.
Assay type: cell-based, Staphylococcus aureus
Experimental: as §1
“GLFDVIKKVASVIGGL-NH2 [Citropin 1.1 AcO^−]” was tested, and the MIC was 8 µg/mL.

Each substance was assayed on S. aureus ATCC 6538. Conditions: ATCC 6538, reference strain; broth microdilution, 0.5 × 10^5 CFU/mL, 18 h, 37 °C, at least triplicate.
Assay type: cell-based, Staphylococcus aureus
Experimental: as §1
Work on “GLFDVIKKVASVIGGL-NH2 [Citropin 1.1 AcO^−]” yielded an MIC of 4 µg/mL.

What follows are substances tested on S. aureus 053N. Conditions: clinical strain, broth microdilution, 0.5 × 10^5 CFU/mL, 18 h, 37 °C, at least triplicate.
Assay type: cell-based, Staphylococcus aureus
Experimental: as §1
In the case of “GLFDVIKKVASVIGGL-NH2 [Citropin 1.1 AcO^−]”, the MIC is reported as 16 µg/mL.

Each substance was assayed on S. aureus 051N (MRSA). Conditions: clinical strain, broth microdilution, 0.5 × 10^5 CFU/mL, 18 h, 37 °C, at least triplicate.
Assay type: cell-based, Staphylococcus aureus
Experimental: as §1
Work on “GLFDVIKKVASVIGGL-NH2 [Citropin 1.1 AcO^−]” yielded an MIC of 8 µg/mL.

Each substance was assayed on S. aureus 017S (MRSA). Conditions: clinical strain, broth microdilution, 0.5 × 10^5 CFU/mL, 18 h, 37 °C, at least triplicate.
Assay type: cell-based, Staphylococcus aureus
Experimental: as §1
With “GLFDVIKKVASVIGGL-NH2 [Citropin 1.1 AcO^−]” the MIC was 8 µg/mL.
